In US20130102627A1, “Acridines As Inhibitors Of Haspin And DYRK Kinases” (THE BRIGHAM AND WOMEN'S HOSPITAL, INC., priority 2010, published 2013):

Key:
Type in all cases: biochemical
[1] = molecular target: T1, human Haspin (MBP-Haspin) (Homo sapiens, UniProt Q8TF76); assay: TR-FRET Haspin assay; conditions: for haspin inhibitory activity (SAR, in words): compared with LDN-192960
T1 construct: This full-length Haspin gene was cloned into the pMALc2E vector; made in house; host or cells: E. coli Rosetta2(DE3)pLysS
T1 sequence (Q8TF76 1-798): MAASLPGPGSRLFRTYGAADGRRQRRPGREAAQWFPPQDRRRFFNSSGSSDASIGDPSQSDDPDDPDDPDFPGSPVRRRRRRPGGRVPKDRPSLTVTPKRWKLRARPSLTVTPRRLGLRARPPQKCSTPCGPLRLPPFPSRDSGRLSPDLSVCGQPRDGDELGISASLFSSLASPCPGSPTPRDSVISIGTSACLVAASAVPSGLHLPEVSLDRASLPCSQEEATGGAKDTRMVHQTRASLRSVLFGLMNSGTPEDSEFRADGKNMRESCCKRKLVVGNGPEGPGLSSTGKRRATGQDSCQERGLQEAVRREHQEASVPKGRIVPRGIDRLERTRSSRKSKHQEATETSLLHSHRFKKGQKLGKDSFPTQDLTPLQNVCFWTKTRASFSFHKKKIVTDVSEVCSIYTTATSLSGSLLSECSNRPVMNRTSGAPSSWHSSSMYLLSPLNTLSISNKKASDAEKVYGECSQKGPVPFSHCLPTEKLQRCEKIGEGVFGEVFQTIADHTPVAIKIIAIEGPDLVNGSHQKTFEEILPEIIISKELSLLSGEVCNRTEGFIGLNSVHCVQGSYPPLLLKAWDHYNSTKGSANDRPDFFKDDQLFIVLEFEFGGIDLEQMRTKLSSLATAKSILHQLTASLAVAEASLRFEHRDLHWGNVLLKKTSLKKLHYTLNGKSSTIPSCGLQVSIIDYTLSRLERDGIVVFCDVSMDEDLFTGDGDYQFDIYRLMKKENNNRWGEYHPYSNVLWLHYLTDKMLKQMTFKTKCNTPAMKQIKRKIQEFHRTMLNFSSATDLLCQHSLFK
Description: To identify Haspin inhibitors by high throughput screening, a homogeneous kinase assay based on time-resolved fluorescence resonance energy transfer (TR-FRET) was designed. […] Such TR-FRET assays use a lanthanide donor species conjugated to a phospho-specific antibody that binds specifically to the product of kinase reaction labeled with an acceptor fluorophore. This induced proximity of the donor and acceptor fluorophores leads to resonance energy transfer, resulting in a detectable increase of TR-FRET signal.
In the assay described below, a Europium chelate, conjugated to an anti-Histone H3T3ph antibody, as the donor species was used. The acceptor fluorophore, allophycocyanin (APC) was used as a streptavidin conjugate that could bind to a biotinylated Histone H3 peptide substrate. […] Lanthanide ions like Europium have a much longer emission lifetime, often measured in hundreds of microseconds, compared with traditional organic reagents that have lifetimes measured on the scale of […]. TR-FRET assays are thus less susceptible to compound interference generated by short-lived compound or matrix component fluorescence. Furthermore, TR-FRET can be carried out in a homogeneous format that avoids time-consuming separation steps that introduce variability. Based on these properties TR-FRET based assay kinases have been widely used in high throughput screening.
The reaction was incubated for 10 minutes at room temperature. Reaction was terminated by the addition of 10 μl 50 mM EDTA, 2 nM Europium labeled anti-Histone H3T3ph antibody, 40 nM Streptavidin-APC.
Data were analyzed using GraphPad Prism Version 4 (GraphPad Software Inc, La Jolla, Calif.). No inhibitor (“MAX”) and Staurosporine inhibitor (“MIN”) controls were used to calculate Z′ values and signal to background ratios during the high throughput screen. […] Km concentrations were also determined by non-linear regression.
(§1) The human haspin kinase inhibitory activity of the various compounds was evaluated using the same assay utilized for the HTS, except in the presence of varying test compound concentrations. DYRK2 kinase inhibitory activity was measured by ^33P-incorporation into Woodtide peptide substrate in the presence of human DYRK2 containing an N-terminal GST-fusion protein and γ^33P-ATP.

human DYRK2 (GST-DYRK2) = molecular target: T2, human DYRK2 (GST-DYRK2) (Homo sapiens, UniProt Q92630); assay: DYRK2 inhibitor assay (33P incorporation into Woodtide peptide); conditions: for IC50: DYRK2 assay of Example 7; for DYRK2 inhibitory activity (SAR, in words): compared with LDN-192960
T2 construct: purchased Carna Biosciences, Japan
T2 sequence (Q92630 1-601): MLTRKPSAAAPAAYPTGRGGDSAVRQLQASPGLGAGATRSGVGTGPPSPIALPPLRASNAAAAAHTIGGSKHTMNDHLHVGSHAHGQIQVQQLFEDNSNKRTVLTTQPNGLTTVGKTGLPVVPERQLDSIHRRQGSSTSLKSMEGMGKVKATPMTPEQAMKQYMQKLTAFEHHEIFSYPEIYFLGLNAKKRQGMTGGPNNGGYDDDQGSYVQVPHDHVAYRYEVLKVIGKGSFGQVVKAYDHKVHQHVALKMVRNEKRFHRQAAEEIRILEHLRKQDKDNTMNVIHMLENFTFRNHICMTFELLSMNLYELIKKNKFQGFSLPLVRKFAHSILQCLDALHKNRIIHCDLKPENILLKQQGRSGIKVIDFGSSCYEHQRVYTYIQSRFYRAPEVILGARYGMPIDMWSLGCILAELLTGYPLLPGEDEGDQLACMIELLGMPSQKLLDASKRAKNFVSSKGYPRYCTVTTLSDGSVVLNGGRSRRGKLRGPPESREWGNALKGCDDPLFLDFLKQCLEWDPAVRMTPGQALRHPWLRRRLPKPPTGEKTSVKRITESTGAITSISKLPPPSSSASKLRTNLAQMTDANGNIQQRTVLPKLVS
Protocol: Reactions were stopped after 10 minutes by addition of 30 mM EDTA followed by spotting 10 μl of the reaction mix on to P81 phosphocellulose filter (Whatman). […] Background level of ^33P incorporation was defined from control reaction lacking peptide.
as §1

TRKB = TRKB (Homo sapiens, UniProt Q16620); assay: Kinase profile panel IC50
ROS = ROS (Homo sapiens, UniProt P08922); assay: Kinase profile panel IC50
HIPK1 = HIPK1 (Homo sapiens, UniProt Q86Z02); assay: Kinase profile panel IC50
HIPK2 = HIPK2 (Homo sapiens, UniProt Q9H2X6); assay: Kinase profile panel IC50
PIM1 = PIM1 (Homo sapiens, UniProt P11309); assay: Kinase profile panel IC50
PIM2 = PIM2 (Homo sapiens, UniProt Q9P1W9); assay: Kinase profile panel IC50
haspin = molecular target: T3, haspin (Homo sapiens, UniProt Q8TF76); assay: Carna Bioscience haspin assay
T3 construct: purchased Carna Bioscience (vendor's assay)
T3 sequence (Q8TF76 1-798): T1 sequence (Q8TF76 1-798)

[2] = test system: panel of two hundred and seventy kinases; assay: Functional inhibition profiling against kinase panel at 10 μM; conditions: panel of 270 kinases

Sequence of PIM1 (P11309 whole entry, species assumed): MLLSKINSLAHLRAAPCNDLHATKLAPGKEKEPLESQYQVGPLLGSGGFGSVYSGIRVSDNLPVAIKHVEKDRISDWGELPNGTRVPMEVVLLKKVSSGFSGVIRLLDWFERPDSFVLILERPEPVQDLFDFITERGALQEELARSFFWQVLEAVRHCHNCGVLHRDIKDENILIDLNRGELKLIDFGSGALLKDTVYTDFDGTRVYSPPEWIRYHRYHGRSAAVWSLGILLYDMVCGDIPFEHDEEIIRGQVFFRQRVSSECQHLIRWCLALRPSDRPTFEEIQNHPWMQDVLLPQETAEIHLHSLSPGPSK
Sequence of ROS (P08922 28-2347, species assumed): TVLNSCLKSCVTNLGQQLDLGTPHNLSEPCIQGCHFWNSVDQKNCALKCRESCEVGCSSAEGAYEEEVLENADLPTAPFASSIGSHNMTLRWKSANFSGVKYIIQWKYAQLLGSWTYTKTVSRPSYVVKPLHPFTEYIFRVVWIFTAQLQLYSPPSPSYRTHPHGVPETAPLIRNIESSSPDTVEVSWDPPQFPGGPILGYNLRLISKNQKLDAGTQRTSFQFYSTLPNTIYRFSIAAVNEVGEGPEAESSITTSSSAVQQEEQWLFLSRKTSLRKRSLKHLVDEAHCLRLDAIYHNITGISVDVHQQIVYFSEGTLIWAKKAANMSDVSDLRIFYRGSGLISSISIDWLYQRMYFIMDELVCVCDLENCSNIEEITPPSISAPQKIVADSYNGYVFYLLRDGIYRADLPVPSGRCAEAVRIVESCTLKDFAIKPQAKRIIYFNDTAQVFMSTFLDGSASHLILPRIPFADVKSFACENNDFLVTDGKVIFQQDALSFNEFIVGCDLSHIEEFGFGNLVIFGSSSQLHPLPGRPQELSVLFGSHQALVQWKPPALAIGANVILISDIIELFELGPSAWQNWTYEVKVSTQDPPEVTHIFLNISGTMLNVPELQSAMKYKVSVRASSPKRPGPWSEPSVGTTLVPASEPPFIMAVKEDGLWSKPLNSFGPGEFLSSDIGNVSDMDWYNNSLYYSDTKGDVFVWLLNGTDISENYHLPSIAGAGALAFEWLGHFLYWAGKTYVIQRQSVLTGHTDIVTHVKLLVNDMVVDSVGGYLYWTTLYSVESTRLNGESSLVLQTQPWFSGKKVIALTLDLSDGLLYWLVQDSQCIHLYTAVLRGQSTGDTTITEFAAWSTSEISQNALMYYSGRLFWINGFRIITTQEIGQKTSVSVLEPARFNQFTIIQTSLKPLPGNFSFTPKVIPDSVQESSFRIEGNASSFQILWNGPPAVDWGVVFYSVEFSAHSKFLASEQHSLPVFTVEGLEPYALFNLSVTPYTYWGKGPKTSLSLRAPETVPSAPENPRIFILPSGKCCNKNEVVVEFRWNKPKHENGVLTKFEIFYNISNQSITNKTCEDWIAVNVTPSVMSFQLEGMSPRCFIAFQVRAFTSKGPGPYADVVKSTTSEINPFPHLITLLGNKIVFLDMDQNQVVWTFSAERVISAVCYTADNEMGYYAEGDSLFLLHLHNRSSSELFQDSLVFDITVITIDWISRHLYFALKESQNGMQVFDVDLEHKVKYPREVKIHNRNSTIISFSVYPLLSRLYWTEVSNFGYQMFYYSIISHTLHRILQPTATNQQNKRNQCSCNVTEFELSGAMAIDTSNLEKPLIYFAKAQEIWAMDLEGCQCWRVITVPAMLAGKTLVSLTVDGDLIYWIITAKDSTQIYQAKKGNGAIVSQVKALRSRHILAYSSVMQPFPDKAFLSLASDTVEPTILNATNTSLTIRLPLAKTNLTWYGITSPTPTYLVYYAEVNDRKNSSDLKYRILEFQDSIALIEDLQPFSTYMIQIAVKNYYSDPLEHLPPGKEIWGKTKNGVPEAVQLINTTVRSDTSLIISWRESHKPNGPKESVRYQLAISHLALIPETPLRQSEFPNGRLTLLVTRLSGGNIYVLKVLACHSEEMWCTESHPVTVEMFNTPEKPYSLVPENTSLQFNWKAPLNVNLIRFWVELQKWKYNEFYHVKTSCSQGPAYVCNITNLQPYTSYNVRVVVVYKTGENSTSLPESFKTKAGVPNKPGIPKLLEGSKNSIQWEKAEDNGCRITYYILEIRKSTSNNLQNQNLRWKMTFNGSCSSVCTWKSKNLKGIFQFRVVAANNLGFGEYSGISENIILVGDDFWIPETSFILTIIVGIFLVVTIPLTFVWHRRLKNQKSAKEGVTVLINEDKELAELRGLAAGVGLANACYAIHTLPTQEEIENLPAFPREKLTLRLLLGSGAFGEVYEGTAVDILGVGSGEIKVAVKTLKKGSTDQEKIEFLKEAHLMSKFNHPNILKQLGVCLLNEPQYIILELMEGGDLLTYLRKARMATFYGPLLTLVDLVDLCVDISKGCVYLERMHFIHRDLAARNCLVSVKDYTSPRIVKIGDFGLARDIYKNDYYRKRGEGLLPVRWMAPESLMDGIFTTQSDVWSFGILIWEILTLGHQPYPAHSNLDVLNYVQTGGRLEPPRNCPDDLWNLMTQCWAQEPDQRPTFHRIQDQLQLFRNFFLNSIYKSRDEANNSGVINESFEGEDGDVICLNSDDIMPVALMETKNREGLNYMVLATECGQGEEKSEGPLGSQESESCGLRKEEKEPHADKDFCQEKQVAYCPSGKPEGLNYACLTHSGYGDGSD
Sequence of TRKB (Q16620 32-822, species assumed): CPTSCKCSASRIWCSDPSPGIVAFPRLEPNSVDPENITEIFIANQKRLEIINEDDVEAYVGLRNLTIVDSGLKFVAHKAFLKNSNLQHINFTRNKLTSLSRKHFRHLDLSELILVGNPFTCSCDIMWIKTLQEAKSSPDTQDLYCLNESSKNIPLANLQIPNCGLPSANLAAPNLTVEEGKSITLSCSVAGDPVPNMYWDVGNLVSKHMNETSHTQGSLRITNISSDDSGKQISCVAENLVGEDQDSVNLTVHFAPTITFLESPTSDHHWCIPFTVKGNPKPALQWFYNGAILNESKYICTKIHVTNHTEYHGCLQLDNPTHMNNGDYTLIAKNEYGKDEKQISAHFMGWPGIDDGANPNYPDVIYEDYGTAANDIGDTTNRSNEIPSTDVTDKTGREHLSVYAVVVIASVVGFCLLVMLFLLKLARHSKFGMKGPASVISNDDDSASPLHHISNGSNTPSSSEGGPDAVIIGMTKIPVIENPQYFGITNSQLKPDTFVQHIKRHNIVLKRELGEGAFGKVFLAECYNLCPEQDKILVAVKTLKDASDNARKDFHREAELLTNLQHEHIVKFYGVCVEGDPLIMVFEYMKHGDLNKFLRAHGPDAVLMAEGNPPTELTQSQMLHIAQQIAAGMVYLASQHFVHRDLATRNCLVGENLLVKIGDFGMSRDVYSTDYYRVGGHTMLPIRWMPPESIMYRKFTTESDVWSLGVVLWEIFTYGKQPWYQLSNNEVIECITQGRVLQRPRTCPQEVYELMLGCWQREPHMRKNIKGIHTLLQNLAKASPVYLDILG
Sequence of HIPK2 (Q9H2X6 whole entry, species assumed): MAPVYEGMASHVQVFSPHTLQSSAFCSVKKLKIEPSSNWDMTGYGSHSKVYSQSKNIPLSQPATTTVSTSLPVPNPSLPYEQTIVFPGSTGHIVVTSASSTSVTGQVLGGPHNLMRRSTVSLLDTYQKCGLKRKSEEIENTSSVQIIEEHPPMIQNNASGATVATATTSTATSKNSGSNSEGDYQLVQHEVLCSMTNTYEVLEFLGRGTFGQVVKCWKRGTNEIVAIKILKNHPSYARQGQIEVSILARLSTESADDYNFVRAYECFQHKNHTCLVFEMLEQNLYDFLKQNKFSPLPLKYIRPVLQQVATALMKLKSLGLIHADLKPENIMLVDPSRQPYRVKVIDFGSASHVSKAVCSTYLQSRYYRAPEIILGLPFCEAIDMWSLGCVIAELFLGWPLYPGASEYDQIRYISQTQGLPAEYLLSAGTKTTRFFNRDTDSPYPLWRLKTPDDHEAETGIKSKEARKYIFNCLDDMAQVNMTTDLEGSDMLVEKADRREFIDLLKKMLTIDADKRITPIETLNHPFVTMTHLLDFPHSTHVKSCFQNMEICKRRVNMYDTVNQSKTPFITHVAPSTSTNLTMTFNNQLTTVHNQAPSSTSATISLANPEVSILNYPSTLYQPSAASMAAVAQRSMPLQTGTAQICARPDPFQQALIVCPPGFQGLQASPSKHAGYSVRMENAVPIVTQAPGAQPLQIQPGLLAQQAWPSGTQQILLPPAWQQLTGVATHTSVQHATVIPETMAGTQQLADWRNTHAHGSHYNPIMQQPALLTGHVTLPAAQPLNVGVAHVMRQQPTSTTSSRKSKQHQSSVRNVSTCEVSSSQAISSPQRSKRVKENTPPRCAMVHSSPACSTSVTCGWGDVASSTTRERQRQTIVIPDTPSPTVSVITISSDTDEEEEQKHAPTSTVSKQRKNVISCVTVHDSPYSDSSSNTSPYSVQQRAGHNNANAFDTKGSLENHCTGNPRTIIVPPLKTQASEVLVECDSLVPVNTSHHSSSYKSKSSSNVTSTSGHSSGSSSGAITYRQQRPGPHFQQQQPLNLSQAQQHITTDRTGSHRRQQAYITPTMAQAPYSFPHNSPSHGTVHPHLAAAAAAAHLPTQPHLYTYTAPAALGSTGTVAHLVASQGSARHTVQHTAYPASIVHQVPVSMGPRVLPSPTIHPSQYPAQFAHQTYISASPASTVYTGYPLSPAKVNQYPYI
Sequence of PIM2 (Q9P1W9 whole entry, species assumed): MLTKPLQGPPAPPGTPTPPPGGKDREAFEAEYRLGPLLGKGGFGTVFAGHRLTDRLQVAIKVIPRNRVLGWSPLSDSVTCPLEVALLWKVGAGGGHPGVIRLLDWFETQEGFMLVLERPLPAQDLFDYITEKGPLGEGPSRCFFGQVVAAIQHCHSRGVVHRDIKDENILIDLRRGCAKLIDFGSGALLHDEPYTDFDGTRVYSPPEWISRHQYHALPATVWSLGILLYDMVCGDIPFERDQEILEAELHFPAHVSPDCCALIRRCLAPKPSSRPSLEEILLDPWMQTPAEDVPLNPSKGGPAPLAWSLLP

| Compound | IC50 ([1]; TR-FRET assay of Example 3) | IC50 (human DYRK2 (GST-DYRK2)) | haspin inhibitory activity (SAR, in words) [1] | DYRK2 inhibitory activity (SAR, in words) (human DYRK2 (GST-DYRK2)) | further results |
| --- | --- | --- | --- | --- | --- |
| COc1ccc2nc(-c3ccccc3)cc(SCCCN)c2c1 [LDN-209964] | < 10 µM | > 10 µM |  |  |  |
| COc1ccc2nc3c(c(SCCCN)c2c1)CCCC3 [LDN-211840] | < 0.5 µM | < 10 µM |  |  |  |
| COc1ccc2nc3ccc(OC)cc3c(CCCCN)c2c1 [LDN-209973] | < 0.05 µM | < 0.5 µM | retained potent inhibitory activity | tolerated | reduction in DYRK2 potency (human DYRK2 (GST-DYRK2); relative to LDN-192960 (sulfur replaced with methylene)): 5 fold |
| COc1ccc2nc3ccc(OC)cc3c(SCCCN(C)C)c2c1 [LDN-212055] | < 0.05 µM | < 0.5 µM | slight decrease in activity |  |  |
| COc1ccc2nc3ccc(OC)cc3c(SCCCN)c2c1 [LDN-192960] |  |  |  |  | IC50 (TRKB): 91 µM; IC50 (ROS): 1.6 µM; IC50 (HIPK1): 1.4 µM; IC50 (HIPK2): 1.3 µM; IC50 (PIM1): 0.72 µM; IC50 (PIM2): 56 µM; inhibition at 10 µM (haspin): 100%; number of other kinases inhibited by ≧90% [2]: ten |
| NCCCSc1c2cc(O)ccc2nc2ccc(O)cc12 [LDN-209838] | < 0.05 µM | < 0.2 µM |  |  |  |
| COc1ccc2nc3ccc(OC)cc3c(SCCCCN)c2c1 [LDN-209959] | < 0.05 µM | < 0.05 µM | only a minimal impact on potency |  |  |
| COc1cc2nc3ccccc3c(SCCCN)c2cc1OC [LDN-192965] | > 20 µM | > 10 µM | loss of activity | loss in activity |  |
| COc1cc2c(SCCCN)c3ccccc3nc2cc1Cl [LDN-209957] | < 0.1 µM | < 10 µM | still quite active | not tolerated |  |
| COc1ccc2nc3ccc(Cl)cc3c(SCCCN)c2c1 [LDN-209929] | < 0.1 µM | < 10 µM |  | not as tolerated | selectivity for haspin versus DYRK2 [1]: 180 fold; IC50 ([1]; text of SAR study): < 0.06 µM |
| COc1ccc2nc3ccc(OC)cc3c(NCCCN)c2c1 [LDN-209962] | < 5 µM | < 10 µM | detrimental | detrimental to DYRK2 inhibition |  |
| COc1cc(OC)c2nc3ccccc3c(NCCCN(C)C)c2c1 [LDN-209839] | > 20 µM | > 10 µM |  |  |  |
| COc1ccc2nc3ccc(OC)cc3c(SCCN)c2c1 [LDN-209958] | < 0.2 µM | < 0.5 µM | reduced activity |  |  |
| COc1ccc2nc3ccccc3c(SCCCN3C(=O)c4ccccc4C3=O)c2c1 [LDN-211849] | < 10 µM | < 1 µM | significant loss of activity |  |  |
| CNCCCSc1c2cc(OC)ccc2nc2ccc(OC)cc12 [LDN-209960] | < 0.01 µM | < 0.2 µM | equally potent |  |  |
| COc1ccc2nc3ccc(C)cc3c(SCCCN)c2c1 [LDN-209928] | < 0.1 µM | < 0.5 µM |  | not as tolerated | IC50 ([1]; text of SAR study): < 0.1 µM |
| COc1ccc2nc3ccc(OC)cc3c(SCCCN3C(=O)c4ccccc4C3=O)c2c1 [LDN-211848] | < 10 µM |  | significant loss of activity | moderately potent |  |
| COc1ccc2nc3ccccc3c(SCCCN)c2c1 [LDN-209856] | < 0.05 µM | < 0.2 µM |  | significant erosion of potency | IC50 ([1]; text of SAR study): < 0.1 µM |
| COc1ccc2nc3ccc(OC)cc3c(OCCCN)c2c1 [LDN-209963] | > 20 µM | > 20 µM | detrimental | detrimental to DYRK2 inhibition |  |
| NCCCSc1c2ccccc2nc2ccccc12 [LDN-209961] | < 10 µM | < 10 µM | inhibitory activity was dramatically reduced | very detrimental |  |
| CCN(CC)CCCNc1c2ccccc2nc2c(OC)cc(OC)cc12 [LDN-209840] | > 20 µM | > 1 µM |  |  |  |
